The NIST ThermoML archive (doi:10.1016/j.jct.2007.07.002)

Settings: Gas, double Helmholtz acoustic resonator

O=C=O [carbon dioxide]
Settings	kinematic viscosity [m2/s]	speed of sound [m/s]
220 K, 195.46 kPa	2.37e-06	231.7
220 K, 226.71 kPa	2e-06	231.05
220 K, 254.44 kPa	1.79e-06	230.53
220 K, 288.21 kPa	1.56e-06	229.81
220 K, 324.47 kPa	1.37e-06	229.07
220 K, 362.71 kPa	1.22e-06	228.29
220 K, 393.15 kPa	1.12e-06	227.64
220 K, 425.51 kPa	1.03e-06	226.95
220 K, 449.74 kPa	9.7e-07	226.42
220 K, 479.78 kPa	9.02e-07	225.76
235 K, 224.78 kPa	2.31e-06	238.87
235 K, 359.42 kPa	1.42e-06	236.69
235 K, 452.88 kPa	1.11e-06	235.12
235 K, 545.18 kPa	9.13e-07	233.52
235 K, 638.46 kPa	7.66e-07	231.87
235 K, 723.88 kPa	6.71e-07	230.31
235 K, 803.31 kPa	5.95e-07	228.81
250 K, 274.2 kPa	2.15e-06	245.57
250 K, 372.33 kPa	1.57e-06	244.25
250 K, 491.25 kPa	1.17e-06	242.62
250 K, 595.84 kPa	9.53e-07	241.15
250 K, 702.28 kPa	7.98e-07	239.62
250 K, 818.89 kPa	6.75e-07	237.9
250 K, 953.03 kPa	5.71e-07	235.87
250 K, 1060.2 kPa	5.07e-07	234.18
250 K, 1177.6 kPa	4.5e-07	232.28
250 K, 1291.6 kPa	4.03e-07	230.37
250 K, 1438.2 kPa	3.54e-07	227.81
270 K, 196.61 kPa	3.5e-06	255.77
270 K, 354.95 kPa	1.95e-06	254.13
270 K, 526.01 kPa	1.29e-06	252.3
270 K, 705.02 kPa	9.47e-07	250.33
270 K, 898.25 kPa	7.28e-07	248.16
270 K, 1076.5 kPa	5.99e-07	246.1
270 K, 1287.1 kPa	4.91e-07	243.58
270 K, 1446.7 kPa	4.31e-07	241.62
270 K, 1630 kPa	3.76e-07	239.29
270 K, 1846 kPa	3.26e-07	236.43
270 K, 2079.6 kPa	2.84e-07	233.19
270 K, 2316.1 kPa	2.49e-07	229.71
270 K, 2509.6 kPa	2.26e-07	226.69
285 K, 371.48 kPa	2.07e-06	260.81
285 K, 575.25 kPa	1.31e-06	258.96
285 K, 787.74 kPa	9.44e-07	257
285 K, 1013 kPa	7.22e-07	254.87
285 K, 1228.5 kPa	5.87e-07	252.79
285 K, 1500.4 kPa	4.72e-07	250.09
285 K, 1707.2 kPa	4.09e-07	247.98
285 K, 1947.2 kPa	3.52e-07	245.46
285 K, 2221.2 kPa	3.03e-07	242.48
285 K, 2559.7 kPa	2.58e-07	238.62
285 K, 2841.9 kPa	2.27e-07	235.23
285 K, 3057.8 kPa	2.06e-07	232.51
300 K, 313.43 kPa	2.72e-06	267.83
300 K, 531.89 kPa	1.58e-06	266.16
300 K, 748.54 kPa	1.11e-06	264.48
300 K, 993.26 kPa	8.26e-07	262.55
300 K, 1237 kPa	6.54e-07	260.6
300 K, 1526.1 kPa	5.22e-07	258.23
300 K, 1747.8 kPa	4.5e-07	256.38
300 K, 1991.5 kPa	3.9e-07	254.3
300 K, 2272.2 kPa	3.37e-07	–
